Results published in the supplement of paper PMC10307832.

Columns and labels:
Experiment in all cases: relative viability (nuclei count vs DMSO), 5 days (fraction); higher = more cells survive
Venetoclax + Trametinib = compound: CC1(C)CCC(CN2CCN(c3ccc(C(=O)NS(=O)(=O)c4ccc(NCC5CCOCC5)c([N+](=O)[O-])c4)c(Oc4cnc5[nH]ccc5c4)c3)CC2)=C(c2ccc(Cl)cc2)C1 [Venetoclax] + CC(=O)Nc1cccc(-n2c(=O)n(C3CC3)c(=O)c3c(Nc4ccc(I)cc4F)n(C)c(=O)c(C)c32)c1 [Trametinib] (partner 0.02 µM)
Summary of the method: (§1)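 Each reported value is a median over duplicate plates. It expresses relative viability: treated-well nuclei count divided by vehicle-well nuclei count. Lung cancer cell lines in 1536-well plates were dosed by pin tool a day after seeding, alone with one drug or with a fixed anchor-drug dose plus five library-drug doses (not always all listed) in √10 steps, and nuclei were counted after 5 days.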

Venetoclax + Alpelisib = compound: CC1(C)CCC(CN2CCN(c3ccc(C(=O)NS(=O)(=O)c4ccc(NCC5CCOCC5)c([N+](=O)[O-])c4)c(Oc4cnc5[nH]ccc5c4)c3)CC2)=C(c2ccc(Cl)cc2)C1 [Venetoclax] + Cc1nc(NC(=O)N2CCC[C@H]2C(N)=O)sc1-c1ccnc(C(C)(C)C(F)(F)F)c1 [Alpelisib] (partner 2 µM)
Summary of the method: as §1

Venetoclax + Phenformin = compound: CC1(C)CCC(CN2CCN(c3ccc(C(=O)NS(=O)(=O)c4ccc(NCC5CCOCC5)c([N+](=O)[O-])c4)c(Oc4cnc5[nH]ccc5c4)c3)CC2)=C(c2ccc(Cl)cc2)C1 [Venetoclax] + N=C(N)NC(=N)NCCc1ccccc1 [Phenformin] (partner 250 µM)
Summary of the method: as §1

Selumetinib + Vorinostat = compound: Cn1cnc2c(F)c(Nc3ccc(Br)cc3Cl)c(C(=O)NOCCO)cc21 [Selumetinib] + O=C(CCCCCCC(=O)Nc1ccccc1)NO [Vorinostat] (partner 1 µM)
Summary of the method: as §1

Cell Line	relative viability (Venetoclax + Trametinib; first compound 0.01 µM)	relative viability (Venetoclax + Trametinib; first compound 0.03162 µM)	relative viability (Venetoclax + Trametinib; first compound 0.1 µM)	relative viability (Venetoclax + Trametinib; first compound 0.3162 µM)	relative viability (Venetoclax + Trametinib; first compound 1 µM)	relative viability (Venetoclax + Alpelisib; first compound 0.01 µM)	relative viability (Venetoclax + Alpelisib; first compound 0.03162 µM)	relative viability (Venetoclax + Alpelisib; first compound 0.1 µM)	relative viability (Venetoclax + Alpelisib; first compound 0.3162 µM)	relative viability (Venetoclax + Alpelisib; first compound 1 µM)	relative viability (Venetoclax + Phenformin; first compound 0.01 µM)	relative viability (Venetoclax + Phenformin; first compound 0.03162 µM)	relative viability (Venetoclax + Phenformin; first compound 0.1 µM)	relative viability (Venetoclax + Phenformin; first compound 0.3162 µM)	relative viability (Venetoclax + Phenformin; first compound 1 µM)	relative viability (Selumetinib + Vorinostat; first compound 0.02 µM)	relative viability (Selumetinib + Vorinostat; first compound 0.06325 µM)	relative viability (Selumetinib + Vorinostat; first compound 0.2 µM)	relative viability (Selumetinib + Vorinostat; first compound 0.6325 µM)
201T	0.675	0.699	0.713	0.682	0.696	0.96	1.01	1.07	0.972	1.03	0.451	0.433	0.456	0.466	0.411	0.929	0.876	0.877	0.814
A549						0.755	0.706	0.868	0.85	0.716	0.141	0.147	0.129	0.164	0.129				
A-427	0.624	0.741	0.735	0.71	0.713	1.02	1.09	1.13	1.07	1.17	0.292	0.322	0.31	0.348	0.259	0.93	0.94	0.976	0.878
ABC-1						0.933	0.996	0.853	0.967	1.01	0.234	0.269	0.236	0.241	0.228	1.29	0.922	0.982	1.04
BEN	1.1	1.02	0.864	1.04	1	0.976	1.07	0.756	1.06	1.01	0.26	0.306	0.302	0.273	0.264	0.527	0.558	0.59	0.632
CAL-12T	0.24	0.385	0.357	0.379	0.278	1.25	1.08	1.01	1.43	1.25	0.543	0.575	0.567	0.555	0.539	0.81	0.724	0.569	0.507
COR-L23	0.528	0.588	0.502	0.575	0.547	0.7	0.753	0.745	0.766	0.741	0.42	0.442	0.413	0.43	0.423	0.554	0.537	0.485	0.456
COR-L 105	0.333	0.499	0.386	0.496	0.413	0.983	0.959	1.13	0.91	1.02	0.583	0.462	0.462	0.493	0.458	0.779	0.829	0.598	0.47
Calu-6						0.946	0.917	0.98	1.02	0.998									
ChaGo-K-1	0.769	0.951	0.882	0.939	0.815						0.539	0.489	0.429	0.49	0.453	0.762	0.684	0.708	0.674
EBC-1						0.815	0.869	0.806	0.831	0.875									
EKVX	0.328	0.382	0.302	0.335	0.38	0.82	1	0.871	0.982	0.786	0.229	0.236	0.223	0.239	0.233	0.557	0.531	0.446	0.384
EMC-BAC-2	0.915	0.965	0.887	0.857	0.906	0.707	0.744	0.747	0.73	0.687	0.483	0.524	0.519	0.512	0.475	0.928	0.682	0.607	0.865
EPLC-272H	0.287	0.284	0.238	0.259	0.263		0.95	0.986	1.11	0.977	0.353	0.312	0.286	0.321	0.295	0.312	0.343	0.3	0.256
H3255	0.586	0.648	0.603	0.517	0.582	0.702	0.671	0.686	0.891	0.686	0.407	0.43	0.348	0.345	0.414	0.671	0.752	0.846	0.797
HARA	1.26	0.818		0.647	0.676	0.728	0.822	0.787	0.891	0.787	0.415	0.406	0.464	0.467	0.447	0.428		0.365	0.249
HCC-15	0.384	0.457	0.352	0.403	0.375	0.872	0.91	0.723	0.857	0.735	0.451	0.48	0.455	0.448	0.406	0.656	0.586	0.435	0.393
HCC-44	1.03	1.11	1.04	1.04	0.999	0.795	0.745	0.64	0.754	0.705	0.362	0.153	0.165	0.161	0.182	1.1	1.05	1.06	1.07

Cell Line	relative viability (Venetoclax + Trametinib; first compound 0.01 µM)	relative viability (Venetoclax + Trametinib; first compound 0.03162 µM)	relative viability (Venetoclax + Trametinib; first compound 0.1 µM)	relative viability (Venetoclax + Trametinib; first compound 0.3162 µM)	relative viability (Venetoclax + Trametinib; first compound 1 µM)	relative viability (Venetoclax + Alpelisib; first compound 0.01 µM)	relative viability (Venetoclax + Alpelisib; first compound 0.03162 µM)	relative viability (Venetoclax + Alpelisib; first compound 0.1 µM)	relative viability (Venetoclax + Alpelisib; first compound 0.3162 µM)	relative viability (Venetoclax + Alpelisib; first compound 1 µM)	relative viability (Venetoclax + Phenformin; first compound 0.01 µM)	relative viability (Venetoclax + Phenformin; first compound 0.03162 µM)	relative viability (Venetoclax + Phenformin; first compound 0.1 µM)	relative viability (Venetoclax + Phenformin; first compound 0.3162 µM)	relative viability (Venetoclax + Phenformin; first compound 1 µM)	relative viability (Selumetinib + Vorinostat; first compound 0.02 µM)	relative viability (Selumetinib + Vorinostat; first compound 0.06325 µM)	relative viability (Selumetinib + Vorinostat; first compound 0.2 µM)	relative viability (Selumetinib + Vorinostat; first compound 0.6325 µM)
HCC-78	0.599	0.826	0.597	0.722	0.911	0.371	0.303	0.313	0.326	0.361	0.782	0.776	0.699	0.671	0.606	0.433	0.358	0.413	0.482
HCC-366	0.358	0.411	0.353	0.383	0.407	0.5	0.425	0.448	0.501	0.317	0.553	0.613	0.578	0.574	0.545	0.335	0.41	0.344	0.445
HCC-827	0.522	0.593	0.538	0.521	0.535	0.954	0.977	1	0.976	0.994	0.473	0.497	0.344	0.406	0.394	1	0.906	0.999	0.957
HOP-62	0.44	0.341	0.366	0.442	0.39	0.924	1.21	1.08	1.07	0.9	0.622	0.655	0.67	0.649	0.64	0.579	0.556	0.555	0.349
IA-LM						0.614	0.726	0.892	0.61	0.604						0.728	0.648	0.366	0.198
LC-2-ad	0.927	0.84	0.898	0.874	0.845	0.839	0.906	1.02	0.871	0.905	0.595	0.606	0.551	0.616	0.565	0.653	0.723	0.665	0.67
LCLC-97TM1	0.217	0.18	0.148	0.167	0.185		0.317	0.248	0.241	0.249	0.463	0.494	0.461	0.449	0.385	0.925	0.714	0.661	0.437
NCI-H522	0.716	0.747	0.674	0.728	0.655						0.647	0.735	0.561	0.613	0.637	0.855	0.846	0.851	0.921
NCI-H1299						1.02	1.03	1.06	1.04	1.03									
NCI-H1563						1.03	0.938	0.852	0.987	1.03	0.728	0.649	0.662	0.701	0.659				
NCI-H1623											0.556	0.607	0.597	0.64	0.63				
NCI-H1648		0.628	0.358	0.427	0.53												0.596	0.423	0.367
NCI-H1650	0.539	0.581	0.609	0.485	0.529						0.515	0.479	0.541	0.534	0.377	0.569	0.526	0.408	0.587
NCI-H1703						0.361	0.436	0.349	0.385	0.303									
NCI-H1792	0.456	0.405	0.485	0.498	0.439	0.674	0.669	0.542	0.616	0.622	0.263	0.258		0.254	0.246				
NCI-H2342	0.77	0.762	0.979	0.839	0.819						0.763	0.531	0.601	0.568	0.563	0.784	0.746	0.737	0.812
SW 900	0.853	0.711	0.824	0.761	0.657						0.385	0.702	0.528	0.706	0.623	0.423	0.399	0.409	0.588
